Among the test systems are HL-60; HOP-92; Malme-3M; SF-539; CAKI-1; DLD-1; OVCAR-5; NCI-H460; HCC 2998; HCT-15; KM12; NCI-H23; UO-31; M14; ACHN; OVCAR-4; SNB-19; U-251.
Assay in all cases: DTP human tumour cell line panel, 48 h

This is an account of results in ChEMBL document CHEMBL1201862, “PubChem BioAssay data set” (2004).

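In this assay, cells in 96-well plates receive the compound at five concentrations for 48 hours. Endpoints are linearly interpolated between the surrounding concentrations. GI50 is the concentration that inhibits growth by half.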 Calls of active or inactive are those of the source. No stated cut-off is given here; in the data, active = GI50 up to about 1.1 µM and inactive = higher. Where only a bound is given, the exact number is not on record here.

What is called GI50 is the concentration giving 50% growth inhibition. For `CC(=O)Oc1ccc2c(c1)C(=O)c1nc(C)c(C)nc1C2=O`, the GI50 is 24.6 µM (inactive) with HL-60; > 87.1 µM (inactive) in the assay on HOP-92; 19.5 µM (inactive) with Malme-3M; 25.8 µM (inactive) with SF-539; > 76.6 µM (inactive) in the assay on CAKI-1; 42.9 µM (inactive) in the assay with DLD-1. The GI50 in the assay on OVCAR-5 is > 100 µM (inactive); in the assay on NCI-H460 it was 30.8 µM (inactive); in the assay with HCC 2998, 21.4 µM (inactive); with HCT-15 it was 40.9 µM; with KM12, 59.3 µM (inactive); in the assay with NCI-H23, 43.4 µM (inactive). The GI50 was > 74.6 µM (inactive) in the assay with UO-31; 38.1 µM (inactive) in the assay with M14; 48.4 µM (inactive) in the assay with ACHN; 46.3 µM (inactive) with OVCAR-4; > 52.4 µM (inactive) in the assay on SNB-19; 51.6 µM (inactive) in the assay on U-251.
For `CN(C)CCn1cnc2ncccc2c1=O`, the GI50 in the assay with HOP-92, with Malme-3M, in the assay on SF-539, in the assay on CAKI-1, in the assay with DLD-1 and in the assay with OVCAR-5 was > 100 µM (inactive) throughout. The GI50 in the assay on NCI-H460, in the assay on HCC 2998, in the assay on KM12, in the assay with NCI-H23, in the assay with UO-31 and with M14 was > 100 µM (inactive) in each case. Besides, the GI50 with ACHN, in the assay with OVCAR-4, in the assay with SNB-19 and in the assay on U-251 was > 100 µM (inactive) throughout.
`O=C1NC(=O)C2C1C1C=C3c4ccccc4N(c4ccccc4)C32[C@H]2C(=O)NC(=O)[C@@H]12` (stereo partly drawn): the GI50 with HL-60, in the assay with HOP-92, with Malme-3M, in the assay with SF-539, with CAKI-1 and in the assay with DLD-1 was > 100 µM (inactive) each time. The GI50 with OVCAR-5 is > 100 µM (inactive); with NCI-H460, > 100 µM (inactive); with HCC 2998 it was > 100 µM (inactive); in the assay on HCT-15 it was greater than 100 µM; in the assay with KM12, > 100 µM (inactive); in the assay with UO-31 it was > 100 µM (inactive). The GI50 with M14, in the assay on ACHN, in the assay with OVCAR-4 and in the assay on SNB-19 was > 100 µM (inactive) in each case.
In the case of `S=C1CNC(=S)CN1`, the GI50 in the assay on HL-60, in the assay on HOP-92, in the assay with Malme-3M, in the assay with SF-539, in the assay with CAKI-1 and in the assay with DLD-1 was > 100 µM (inactive) in each case. The GI50 was > 100 µM (inactive) in the assay with OVCAR-5; > 100 µM (inactive) in the assay on NCI-H460; > 100 µM (inactive) in the assay on HCC 2998; greater than 100 µM with HCT-15; > 100 µM (inactive) in the assay with KM12; > 100 µM (inactive) in the assay with UO-31. The GI50 in the assay with M14, in the assay on ACHN, with OVCAR-4, with SNB-19 and in the assay with U-251 was > 100 µM (inactive) in each case.
Turning to `CCc1c(OC(C)=O)c2c(NC3OC(COC(C)=O)C(OC(C)=O)C(OC(C)=O)C3OC(C)=O)nc(SC)nc2oc1=O` (stereo not drawn), the GI50 with HL-60, with HOP-92, in the assay on Malme-3M, with SF-539, with CAKI-1 and in the assay with DLD-1 was > 100 µM (inactive) in each case. Further, the GI50 is > 100 µM (inactive) in the assay with OVCAR-5; > 100 µM (inactive) with NCI-H460; > 100 µM (inactive) in the assay with HCC 2998; greater than 100 µM in the assay with HCT-15; > 100 µM (inactive) with KM12; > 100 µM (inactive) in the assay with NCI-H23. For the same compound, the GI50 in the assay on UO-31, with M14, with ACHN, in the assay on OVCAR-4, in the assay with SNB-19 and in the assay with U-251 was > 100 µM (inactive) throughout.
With `CC(C)=CC(=O)Cc1nc2ccc([N+](=O)[O-])cc2[nH]c1=O`, the GI50 in the assay on HL-60 is 40.8 µM (inactive); in the assay on HOP-92, > 100 µM (inactive); in the assay with Malme-3M, > 100 µM (inactive); in the assay with SF-539, > 100 µM (inactive); with CAKI-1, > 100 µM (inactive); with DLD-1, 72.1 µM (inactive). For the same compound, the GI50 with OVCAR-5 is > 100 µM (inactive); in the assay on NCI-H460, > 100 µM (inactive); with HCT-15, greater than 100 µM; with NCI-H23, > 100 µM (inactive); with UO-31, 63.1 µM (inactive); with M14 it was > 100 µM (inactive). Besides, the GI50 in the assay with ACHN, in the assay with OVCAR-4 and in the assay with SNB-19 was > 100 µM (inactive) throughout.
Consider `Cn1c(=O)n(C2(C)CSC2)c2ccccc21`, for which the GI50 with HL-60, with HOP-92, with SF-539, in the assay with CAKI-1, in the assay with DLD-1 and with OVCAR-5 was > 100 µM (inactive) throughout. The GI50 in the assay with NCI-H460 is > 100 µM (inactive); in the assay on HCC 2998 it was > 100 µM (inactive); in the assay on HCT-15, greater than 100 µM; with KM12, > 100 µM (inactive); in the assay with NCI-H23 it was > 100 µM (inactive); in the assay with UO-31, > 100 µM (inactive). The GI50 in the assay on M14, in the assay on ACHN, with OVCAR-4, in the assay on SNB-19 and with U-251 was > 100 µM (inactive) each time.
As for `O=[N+]([O-])c1ccc(Cl)c(C2SCc3nc4ccccc4n32)c1` (stereo not drawn), the GI50 in the assay on HL-60 was 23.2 µM (inactive); with HOP-92 it was 16.1 µM (inactive); with Malme-3M, 44.1 µM (inactive); with SF-539, 31.9 µM (inactive); in the assay on CAKI-1, 20.1 µM (inactive); with DLD-1, 45.8 µM (inactive). Also, the GI50 in the assay with OVCAR-5 is 27.4 µM (inactive); in the assay with NCI-H460 it was 28.7 µM (inactive); in the assay with HCC 2998, 71.4 µM (inactive); with KM12, 29 µM (inactive); in the assay on NCI-H23 it was 33.2 µM (inactive); with UO-31, 17.3 µM (inactive). The GI50 was 44.9 µM (inactive) in the assay on ACHN, 41.5 µM (inactive) in the assay on SNB-19 and 41.8 µM (inactive) in the assay with U-251.
Turning to `O=C(NC1CCCC1=O)c1ccccc1` (stereo not drawn), the GI50 in the assay on HL-60, in the assay on HOP-92, in the assay with Malme-3M, in the assay with SF-539, in the assay with CAKI-1 and in the assay on DLD-1 was > 100 µM (inactive) in each case. The GI50 in the assay with OVCAR-5, in the assay on NCI-H460, in the assay with KM12, in the assay on NCI-H23, in the assay with UO-31 and in the assay with M14 was > 100 µM (inactive) in each case. Moreover, the GI50 in the assay with ACHN, in the assay with OVCAR-4, with SNB-19 and in the assay on U-251 was > 100 µM (inactive) throughout.
On to `Nc1nc(=O)n([C@@H]2CC[C@H](CO)O2)cc1F`, for which the GI50 in the assay on HL-60, with HOP-92, in the assay on Malme-3M, in the assay with CAKI-1, with DLD-1 and with OVCAR-5 was > 100 µM (inactive) throughout. The GI50 is > 100 µM (inactive) in the assay with NCI-H460; 42.8 µM (inactive) in the assay with HCC 2998; greater than 100 µM in the assay with HCT-15; > 100 µM (inactive) in the assay with KM12; > 100 µM (inactive) in the assay on NCI-H23; > 100 µM (inactive) in the assay with UO-31. Besides, the GI50 in the assay with M14, with ACHN, with OVCAR-4, with SNB-19 and with U-251 was > 100 µM (inactive) in each case.
For `O=C(O)c1cc(Cl)cc(NC(=O)C(Cl)Cl)c1Cl`, the GI50 in the assay with HL-60, in the assay with Malme-3M, with SF-539, with CAKI-1, in the assay on DLD-1 and in the assay with NCI-H460 was > 100 µM (inactive) in each case. For the same compound, the GI50 in the assay with HCC 2998 is > 100 µM (inactive); in the assay on HCT-15 it was greater than 100 µM; in the assay with KM12, > 100 µM (inactive); in the assay on NCI-H23, > 100 µM (inactive); with UO-31, > 100 µM (inactive); with M14, > 100 µM (inactive). Moreover, the GI50 in the assay on ACHN, with OVCAR-4, in the assay with SNB-19 and with U-251 was > 100 µM (inactive) each time.
Regarding `Cc1cc2c(c(C(N)=O)c1C)-c1cccc(Cl)c1C2=O`, the GI50 in the assay with HL-60, with HOP-92, in the assay on Malme-3M, in the assay on SF-539, in the assay on DLD-1 and in the assay on OVCAR-5 was > 100 µM (inactive) each time. The GI50 in the assay with NCI-H460 is > 100 µM (inactive); with HCC 2998, > 100 µM (inactive); with HCT-15 it was greater than 100 µM; with KM12, > 100 µM (inactive); in the assay on NCI-H23 it was > 100 µM (inactive); with UO-31, 41.6 µM (inactive). Further, the GI50 was > 100 µM (inactive) with M14; > 100 µM (inactive) in the assay on ACHN; > 100 µM (inactive) with OVCAR-4; 64.1 µM (inactive) in the assay on SNB-19; > 100 µM (inactive) with U-251.
